Laboratory results reported in patent US20080287517A1, “Pyrazole Derivatives as Cb1 Modulators” (priority 2005, published 2008).

Target: T1, CB1 receptor (Homo sapiens, UniProt P21554)
T1 construct: expressed in transfected cells
Test: [35S]-GTPγS binding assay on membranes from cells stably transfected with the CB1 gene, inhibition of CP55940 (EC80) stimulated binding
Assay type: biochemical
Details: concentration giving half maximal inhibition of GTPγS binding; EC80 of agonist CP55940
Method: 10 μg of membranes prepared from cells stably transfected with the CB1 gene were suspended in 200 μl of 100 mM NaCl, 5 mM MgCl2, 1 mM EDTA, 50 mM HEPES (pH 7.4), 1 mM DTT, 0.1% BSA and 100 μM GDP. To this was added an EC80 concentration of agonist (CP55940), the required concentration of test compound and 0.1 μCi [^35S]-GTPγS. The reaction was allowed to proceed at 30° C. for 45 min. Samples were then transferred on to GF/B filters using a cell harvester and washed with wash buffer (50 mM Tris (pH 7.4), 5 mM MgCl2, […]). Filters were then covered with scintillant and counted for the amount of [^35S]-GTPγS retained by the filter.
Activity is measured in the absence of all ligands (minimum activity) or in the presence of an EC80 concentration of CP55940 (maximum activity). These activities are set as 0% and 100% activity respectively. At various concentrations of novel ligand, activity is calculated as a percentage of the maximum activity and plotted. The data are fitted using the equation y=A+((B−A)/1+((C/x)UD)) and the IC50 value determined as the concentration required to give half maximal inhibition of GTPγS binding under the conditions used.

T1 sequence (P21554 whole entry): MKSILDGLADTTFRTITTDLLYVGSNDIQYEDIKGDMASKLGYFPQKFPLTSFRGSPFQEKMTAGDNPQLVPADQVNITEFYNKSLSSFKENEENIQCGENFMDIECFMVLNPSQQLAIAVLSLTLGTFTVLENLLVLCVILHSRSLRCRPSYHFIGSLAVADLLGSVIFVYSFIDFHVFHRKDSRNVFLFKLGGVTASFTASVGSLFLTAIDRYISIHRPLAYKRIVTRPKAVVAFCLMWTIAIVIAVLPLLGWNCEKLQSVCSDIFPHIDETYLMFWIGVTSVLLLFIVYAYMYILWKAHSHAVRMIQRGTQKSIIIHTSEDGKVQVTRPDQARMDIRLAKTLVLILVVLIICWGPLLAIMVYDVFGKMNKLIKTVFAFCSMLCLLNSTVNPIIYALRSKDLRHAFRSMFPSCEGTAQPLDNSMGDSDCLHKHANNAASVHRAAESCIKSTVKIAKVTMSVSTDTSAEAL

- IC50: 1.95 nM
Compound: Cc1ccc(NC(=O)c2nn(-c3ccc(Cl)cc3Cl)c(-c3ccc(OS(=O)(=O)CCC(F)(F)F)cc3)c2C)nc1 [Example 10, 3,3,3-Trifluoro-propane-1-sulfonic acid 4-[2-(2,4-dichlorophenyl)-4-methyl-5-(5-methyl-pyridin-2-ylcarbamoyl)-2H-pyrazol-3-yl]phenyl ester]
